Results: PubChem BioAssay AID743417 (Broad Institute, 2014)
Records with an inconclusive call do not appear. The source made the active and inactive calls.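 The calls were made as follows: active = compounds lowering the luciferase signal with a fitted half-maximal dose at most twice their top valid dose (cut at about 30 µM in these data); inconclusive = flat fits with moderate signal loss, or poor fits; inactive = the rest.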

system: Clone20 osteoblast Shn3 3'UTR firefly luciferase, 24 h; assay: Schnurri-3 3'UTR-luciferase signal suppressors – cell-based, Clone20 osteoblasts, luminescence, dry powder, set 2, dose response (AID 743417)

Compared with CN(C)c1ccc(/C=C/c2ccc3c4ccccc4ccc3[n+]2-c2ccccc2)cc1, N#Cc1cc(-c2ccccc2)[nH]c1-c1nccc2ccccc12 is higher in AC50: under 0.26 µM for the first, 3.42 µM for the second.

Compared with CC(=O)c1cn(Cc2ccccc2C#N)c2ccccc12, O=C(c1ccccc1)c1ccccc1N1C(=O)C=CC1=O is 32-fold higher in AC50: 0.527 µM for the first, 16.7 µM for the second.

Going from O=S(=O)(c1cccs1)N1CCN(CCOc2ccc(Cl)cc2)CC1 to CN(CCOc1ccc(Cl)cc1)C(=O)c1cccc(S(=O)(=O)N2CCN(Cc3ccccc3)CC2)c1, the AC50 falls from 13.8 µM to 2.29 µM (6-fold).

C=CCn1c(SCC(=O)c2[nH]c(C)c(C(=O)OC)c2C)nc2scc(-c3ccc(OC)c(OC)c3)c2c1=O and CCn1c(CNC(=O)c2cc(OC)c(OC)c(OC)c2)cc2cc(C)ccc21 are within 1.5-fold of each other in AC50: 2.01 µM for the first, 2.52 µM for the second.

COc1ccc(C(NC(C)=O)c2ccc3cccnc3c2O)c(OC)c1 (configuration not stated) and CC(C)C(=O)NC(c1ccco1)c1ccc2cccnc2c1O (configuration not stated) are within 1.5-fold of each other in AC50: 1.74 µM for the first, 2.05 µM for the second.

Going from Oc1ccc(CN2CCCc3ccccc32)c2cccnc12 to CC(C)c1ccccc1-n1c(SCC(=O)N2CCc3ccccc3C2)nc2ccccc2c1=O, the AC50 falls from 5.4 µM to 2.99 µM (1.8-fold).

First: O=C(NCc1ccc2c(c1)OCO2)c1nc(S(=O)(=O)Cc2ccccc2F)ncc1Cl
Second: CSc1nnc(NC(=O)c2nc(S(=O)(=O)Cc3ccccc3)ncc2Cl)s1
The AC50 of the first is 3.8-fold higher: 5.19 µM for the first, 1.35 µM for the second.

Compared with CC(C)CCOc1cccc(OCC(=O)Nc2ccncc2)c1, Cc1ccc(CC(=O)Nc2ccncc2)cc1 is 4.2-fold higher in AC50: 0.571 µM for the first, 2.39 µM for the second.

First: O=C(/C=C/c1ccc(F)cc1)NC(=S)NNC(=O)c1cnccn1
Second: COc1ccc(/C=C/C(=O)NC(=S)NNC(=O)c2cnccn2)cc1
The AC50 of the first is 11-fold lower: 1.39 µM for the first, 15.5 µM for the second.

First: CN(Cc1nccn1C)C(=O)c1cc(COc2ccc3ncccc3c2)on1
Second: CCCCn1c(-c2nonc2NC(=O)c2ccccc2Cl)nc2ccccc21
The AC50 of the first is 5-fold higher: 6.97 µM for the first, 1.39 µM for the second.

First: COc1ccc(C(=O)NC2CCCc3c2cnn3-c2cccc(C)c2C)c(OC)n1 (configuration not stated)
Second: Cn1nccc1C(=O)NC1CCCc2c1cnn2-c1ccccc1F (configuration not stated)
The AC50 of the first is 5.3-fold higher: 1.96 µM for the first, 0.37 µM for the second.

Compared with Cc1cc(N2CCCCC2)nc(NCc2ccccc2)n1, COc1ccc(Nc2nc(N3CCCCC3)c3ccccc3n2)cc1 is 1.9-fold lower in AC50: 4.01 µM for the first, 2.11 µM for the second.

Going from Cc1ccc(S(=O)(=O)N2[C@H](c3cccc(Cl)c3)CC(=O)[C@@H]3CN(S(=O)(=O)c4ccccc4C)[C@H](c4ccc(Cl)cc4)C[C@@H]32)cc1 to Cc1ccc(NS(=O)(=O)c2ccc(C(=O)NC3CCN(Cc4ccccc4)CC3)cc2)cc1, the AC50 rises from 0.289 µM to 4.69 µM (16-fold).

COc1ccccc1CNc1nc(NCc2ccc(C(C)C)cc2)c2sccc2n1 and COc1ccccc1CNc1nc(NCc2ccccc2OC)c2sccc2n1 are within 1.5-fold of each other in AC50: 6.81 µM for the first, 6.33 µM for the second.

First: Cn1c(=O)n(C)c2cc([N+](=O)[O-])c(N3CCN(S(=O)(=O)c4ccc(C(C)(C)C)cc4)CC3)cc21
Second: CN1CCN(S(=O)(=O)c2ccc(N(C)Cc3ccc(C(F)(F)F)cc3)c([N+](=O)[O-])c2)CC1
The AC50 of the first is 1.8-fold lower: 3.53 µM for the first, 6.3 µM for the second.

CC(C)(O)/C=C/C(=O)C(C)(O)C1C(O)CC2(C)C3CC=C4C(C=C(O)C(=O)C4(C)C)C3(C)C(=O)CC12C (configuration not stated) and CC(C)=CCC/C(C)=C/CNC(=O)C[C@H]1C[C@H](C(=O)N(C(C)C)C(C)C)[C@@]2(C)c3[nH]c4cc(CCC(=O)N(C)C)ccc4c3CCN2C1=O are within 1.5-fold of each other in AC50: 1.83 µM for the first, 2.05 µM for the second.

Compared with CCOC(=O)C1CCN(S(=O)(=O)c2c(Cl)ccc3nonc23)CC1, CCN(CC)C(=O)C1CCN(S(=O)(=O)c2ccc3oc4ccccc4c3c2)CC1 is 4.3-fold higher in AC50: 0.919 µM for the first, 3.96 µM for the second.

Compared with COc1ccc(C(=O)C(CN2CCOCC2)c2ccccc2)cc1 (configuration not stated), COc1ccc(NS(=O)(=O)c2ccc(N3CCOCC3)c(N)c2)cc1 is 5.2-fold lower in AC50: 5.59 µM for the first, 1.08 µM for the second.

CCOC(=O)c1cnc(-n2nc(C)cc2C)nc1NC1CCCC1 and Cc1cc(C)n(-c2nc(Nc3ccccc3C(F)(F)F)nc(-n3nc(C)cc3C)n2)n1 are within 1.5-fold of each other in AC50: 4.4 µM for the first, 5.49 µM for the second.

Compared with Cc1cc(C2=NNC(=NC3CC3)SC2)c(C)n1-c1ccccc1F, Cc1ccc2c(c1)c(C1=c3ccccc3=NC1=O)c(O)n2C is higher in AC50: under 0.26 µM for the first, 8.85 µM for the second.

First: Cc1ccc(S(=O)(=O)c2ccc([N+](=O)[O-])cn2)cc1
Second: O=[N+]([O-])c1ccc(Sc2cccc3cccnc23)c([N+](=O)[O-])c1
The AC50 of the first is 2.3-fold higher: 3.85 µM for the first, 1.71 µM for the second.

O=C(c1cc2sccc2n1Cc1ccc(F)cc1)N1CCN(c2nc3ccccc3s2)CC1 and O=C(c1cnc(N2CCN(c3ccccn3)CC2)c2ccccc12)N1CCN(c2cccc(Cl)c2)CC1 are within 1.5-fold of each other in AC50: 1.36 µM for the first, 1.99 µM for the second.

Going from CC1=NOC(=O)/C1=C\c1ccc(-c2cc(Cl)ccc2Cl)o1 to Cc1ccc(-n2c(Cl)c(Cl)nc(Cl)c2=O)cc1, the AC50 falls from 5.69 µM to 1.77 µM (3.2-fold).

Going from CC1CCN(c2ccccc2NC(=S)NC(=O)c2ccc(-c3cccc([N+](=O)[O-])c3)o2)CC1 to Cn1cc([N+](=O)[O-])c(C(=O)Nc2cc(Oc3ccccc3)cc([N+](=O)[O-])c2)n1, the AC50 rises from 3.07 µM to 5.41 µM (1.8-fold).

Going from O=C1CC(Sc2nnc(-c3ccccc3O)o2)C(=O)N1c1ccccc1 (configuration not stated) to O=S1(=O)C=C(Sc2nnc(-c3ccccc3)o2)c2ccccc21, the AC50 falls from 12.9 µM to 1.7 µM (7.6-fold).

Going from O=c1c2ccccc2sc2ccc(C#CC3(O)CCCCC3)cc12 to Cn1nc(CC(=O)Nc2ccc3c(c2)OCCO3)c2ccccc2c1=O, the AC50 rises from under 0.26 µM to 0.899 µM.

COc1cccc(C(c2nnnn2-c2ccc3c(c2)OCCO3)N2CCC(n3c(=O)[nH]c4ccccc43)CC2)c1OC (configuration not stated) and CCCOc1ccccc1C1CC(=O)Nc2cc3c(cc21)OCCO3 (configuration not stated) are within 1.5-fold of each other in AC50: 3.74 µM for the first, 3.66 µM for the second.

Going from Cc1cc(NC(=O)CCCS(=O)(=O)c2nc(-c3cccs3)cc(C(F)(F)F)n2)no1 to CC(C)c1nnc(NC(=O)CCS(=O)(=O)c2nc(-c3cccs3)cc(C(F)(F)F)n2)s1, the AC50 rises from 1.73 µM to 3.02 µM (1.7-fold).

First: C=C[C@]1(C)C=C2C(=O)[C@@]3(O)OC(=O)[C@@]4(CCCC(C)(C)[C@H]34)[C@@]2(O)CC1
Second: C=C(C)[C@@H]1C2=CC(C(=O)OC)=C(C[C@H](C(=C)C)[C@H]3O[C@H]3C3=C[C@H]1OC3=O)O2
The AC50 of the first is 1.6-fold lower: 4.98 µM for the first, 8.16 µM for the second.

CC(C)CC(=O)NC(=S)Nc1ccc(N2CCN(C(=O)c3cccs3)CC2)cc1 and CC(=O)c1ccc(N2CCN(c3ccc(S(=O)(=O)NCCCN(C)C)cc3[N+](=O)[O-])CC2)cc1 are within 1.5-fold of each other in AC50: 2.54 µM for the first, 3.78 µM for the second.

CSc1cccc(NS(=O)(=O)c2ccc3c(c2)CCN3C(C)=O)c1 and COc1ccc(NS(=O)(=O)c2ccc(-c3cnc(C4CC4)o3)cc2)cc1OC are within 1.5-fold of each other in AC50: 1.49 µM for the first, 1.33 µM for the second.

Compared with NC(CCc1ccccc1)c1csc(NC(=O)Nc2ccccc2Oc2ccccc2)n1 (configuration not stated), CC(C)N(CCC(=O)c1ccc2ccccc2c1)Cc1ccccc1 is 1.7-fold lower in AC50: 7.18 µM for the first, 4.22 µM for the second.

Fc1ccc(/C=C2\CCCC3=C2Nc2ncnn2C3c2ccc(F)cc2)cc1 (configuration not stated) and CCCCCCN1C[C@H](n2cc(-c3ccc(F)cc3)nn2)[C@@H](O)C[C@@H]1c1ccc(Cl)cc1 are within 1.5-fold of each other in AC50: 8.47 µM for the first, 10.3 µM for the second.

Compared with CCN1CCN(Cc2ccc(NC(=O)c3ccc(C)c(/C=C/c4cnc(Nc5cc(N6CCNCC6)nc(C)n5)cn4)c3)cc2C(F)(F)F)CC1, Cc1oc(-c2ccc(Cl)cc2)nc1CS(=O)CC(=O)NCCCN1CCN(Cc2ccccc2)CC1 (configuration not stated) is 3.8-fold lower in AC50: 9.56 µM for the first, 2.52 µM for the second.

Compared with Oc1cccc2cc(Nc3ccccc3)cnc12, Oc1ccccc1C(Nc1nccs1)c1ccc2cccnc2c1O (configuration not stated) is 1.8-fold higher in AC50: 0.644 µM for the first, 1.13 µM for the second.

Going from CCCCCn1c(N2CCN(c3cccc(Cl)c3)CC2)nc2c1c(=O)[nH]c(=O)n2C to CCCCCCn1c(NCC)nc2c1c(=O)n(C)c(=O)n2C, the AC50 falls from 21.8 µM to 0.834 µM (26-fold).

Compared with COC(=O)C1=C(c2ccc3ccccc3c2)C[C@@H]2CC[C@H]1N2C(=O)NCC1CC1, COc1ccc(C(=O)NC(=S)NNC(=O)c2ccc3ccccc3n2)cc1 is 1.6-fold lower in AC50: 6.86 µM for the first, 4.32 µM for the second.

Going from COc1ccc(OC)c(NC(=O)c2cc(-c3cc(F)ccc3OCC3CCCO3)n[nH]2)c1 (configuration not stated) to COc1ccc(Cc2nccc3cc(OC)c(OC)cc23)cc1OC, the AC50 falls from 10.5 µM to 2.48 µM (4.2-fold).

Compared with COc1ccc([C@@]23Oc4cc(OC)cc(OC)c4[C@]2(O)[C@H](O)[C@H](C(=O)N(C)C)[C@H]3c2ccccc2)cc1, CCCOc1ccccc1N/C(=N/c1nc(C)cc(C)n1)NC(=O)COc1ccc(OC)cc1 is higher in AC50: under 0.26 µM for the first, 3.24 µM for the second.

Going from CC(C)(C)C(=O)/C(=C/c1ccncc1)n1cncn1 to COc1ccc(CC(=O)Nc2ccncc2Cl)cc1, the AC50 falls from 3.27 µM to 2.12 µM (1.5-fold).

First: COc1ccc(-n2c(C)cc(C(=O)CSc3nnc(-c4cccs4)o3)c2C)cc1
Second: CCn1nc(/C=C/c2ccccc2)nc2c(=O)n(C)c(=O)nc1-2
The AC50 of the first is 2-fold higher: 5.03 µM for the first, 2.57 µM for the second.

Compared with Cc1ccc(NN2C(=O)C=C(c3ccc(Cl)cc3)C2=O)cc1, Cc1ccc(-c2cn3cc(C)ccc3n2)cc1 is 4.9-fold lower in AC50: 6.53 µM for the first, 1.32 µM for the second.

First: CCN(CC)c1ccc(/C=C2/SC(=O)N(C(C)C)C2=O)o1
Second: CCCCC(=O)NC(c1ccc(C(C)C)cc1)c1ccc2cccnc2c1O (configuration not stated)
The AC50 of the first is 6.1-fold higher: 3.46 µM for the first, 0.57 µM for the second.

Going from CCOc1cc(C)c(S(=O)(=O)Nc2ccc3cn[nH]c3c2)cc1C to CC(C)OC(=O)c1ccc(NCc2cc(O)ccc2O)cc1Cl, the AC50 falls from 4.89 µM to 2.15 µM (2.3-fold).

First: CCOC(=O)Oc1c(OC)cc(C(=O)O[C@@H]2C[C@@H]3CN4CCc5c([nH]c6cc(OC)ccc56)[C@H]4C[C@@H]3[C@H](C(=O)OC)[C@H]2OC)cc1OC
Second: CCOC(=O)C1(CCOc2ccccc2)CCN(Cc2ccc(OC)c(COC)c2)CC1
The AC50 of the first is 2.8-fold higher: 10.7 µM for the first, 3.87 µM for the second.

Compared with CN(c1ccccc1)S(=O)(=O)c1cccc(NC(=O)c2ccc3ncsc3c2)c1, O=C(Nc1nc(-c2ccccn2)cs1)c1ccccc1-n1cnnn1 is 10-fold lower in AC50: 17.2 µM for the first, 1.71 µM for the second.

First: CCCc1nc2ccc(Br)cc2c(=O)n1-c1ccc([N+](=O)[O-])c(C(F)(F)F)c1
Second: O=C(Nc1ccc([N+](=O)[O-])cc1)Nc1nc(-c2ccc(Cl)s2)cs1
The AC50 of the first is 4.9-fold higher: 15.7 µM for the first, 3.19 µM for the second.

Going from CCOC(=O)c1ccc(NC(=O)Cn2ncc(Cl)c(Cl)c2=O)cc1 to Cc1ccccc1OCC(O)CNC1CCC(NCC(O)COc2ccccc2C)CC1 (configuration not stated), the AC50 rises from 2.32 µM to 4.5 µM (1.9-fold).

Compared with NC(=Nc1nc(-c2ccccn2)cc2ccccc12)c1ccccn1, Cc1nc2nc(C)n(CCN3CCOCC3)c(=O)c2c(-c2cccc([N+](=O)[O-])c2)c1C(=O)CCCCCCCCCCN1CCC(c2ccccc2)(c2ccccc2)CC1 is higher in AC50: under 0.26 µM for the first, 7.38 µM for the second.

Work on CC(C)C[C@H]1CNC(=S)N1CC1CCN(CC2CCC(C(C)(C)C)CC2)CC1 (some centres not stated) yielded an AC50 of 4.05 µM.

With CC1(C)CC(=O)c2c(nc(SCC(=O)Nc3nsc(-c4ccccc4)n3)c(C#N)c2-c2ccccc2)C1 the AC50 was > 70 µM (inactive).
Cc1cc(=O)oc2c3c(cc(OCC(=O)Nc4ccc(CCO)cc4)c12)OC(C)(C)CC3 was tested, and the AC50 was > 70 µM (inactive).
For O=C(Cc1ccc(Cl)cc1)Nc1ccc(N2CCN(C(=O)c3ccco3)CC2)cc1, the AC50 was > 70 µM (inactive).
